This is an account of results in ChEMBL document CHEMBL1130967, “Modulation of apoptosis in human lymphocytes by adenosine analogues” (1998).

Molecules are shown by their SMILES.

Common to all, as to assay type: functional
A short description of test [1]: Percentage of apoptotic cells in human peripheral blood mononuclear cells after 72 hour incubation at the concentration 1 uM. The settings on record: at 1 µM.
The nature of test [2]: Percentage of apoptotic cells in human peripheral blood mononuclear cells after 72 hour incubation at the concentration 10 uM. The settings on record: at 10 µM.
A short description of test [3]: Percentage of apoptotic cells in human peripheral blood mononuclear cells after 72 hour incubation at the concentration 30 uM. The settings on record: at 30 µM.
Test [4] in a line: Percentage of apoptotic cells in human peripheral blood mononuclear cells after 72 hour incubation at the concentration 60 uM. The settings on record: at 60 µM.

With `Nc1ccnc2c1ncn2[C@@H]1O[C@H](CO)[C@@H](O)[C@H]1O`, the Apoptotic cells in test [1] was found to be 8%; in test [2], 16.6%; in test [3], 12.8%; in test [4], 10.7%.

Turning to `Nc1nc(Cl)nc2c1ncn2C1CCC(CO)O1` (stereo not given), the Apoptotic cells in test [1] was 4.7%; in test [2], 8.5%; in test [3] it was 9.6%; in test [4] it was 11.4%.

For `OC[C@H]1O[C@@H](n2cnc3c(NC4CCCCCC4)ncnc32)C[C@@H]1O`, the Apoptotic cells in test [1] came out at 8%; in test [2] it was 9.4%; in test [3] it was 9.8%; in test [4], 11.1%.

As for `OC[C@H]1O[C@@H](n2cnc3c(NC4CCCCCC4)nc(Cl)nc32)C[C@@H]1O`, the Apoptotic cells was 8.2% in test [1], 7.9% in test [2], 12.3% in test [3] and 16.3% in test [4].

With `OC[C@H]1O[C@@H](n2cnc3c(NC4CCCC4)ncnc32)C[C@@H]1O`, the Apoptotic cells in test [1] is reported as 6.7%; in test [2], 7.9%; in test [3], 7.1%; in test [4], 8.7%.

For the molecule `OC[C@H]1O[C@@H](n2cnc3c(NC4CCCC4)nc(Cl)nc32)C[C@@H]1O`, the Apoptotic cells is 4.7% in test [1], 10% in test [2], 18.8% in test [3] and 38.8% in test [4].

Take `OC[C@H]1O[C@@H](n2cnc3c(NC4CC4)ncnc32)C[C@@H]1O`: the Apoptotic cells in test [1] is on record as 7.1%; in test [2], 9.5%; in test [3], 9.5%; in test [4], 10.6%.

Take `OC[C@H]1O[C@@H](n2cnc3c(NC4CC4)nc(Cl)nc32)C[C@@H]1O`: the Apoptotic cells in test [1] is on record as 7.8%; in test [2] it was 7.7%; in test [3] it was 17.9%; in test [4] it was 24.7%.

For `Nc1nccc2c1ncn2[C@@H]1O[C@H](CO)[C@@H](O)[C@H]1O`, the Apoptotic cells in test [1] is reported as 9.9%; in test [2], 6.5%; in test [3] it was 11.9%; in test [4], 10.7%.

As to `Nc1cc(Cl)nc2c1ncn2[C@@H]1O[C@H](CO)[C@@H](O)[C@H]1O`, the Apoptotic cells in test [1] turned out to be 10.2%; in test [2], 10.4%; in test [3] it was 11.1%; in test [4], 12.1%.

For the molecule `Nc1nc(I)nc2c1ncn2[C@@H]1O[C@H](CO)[C@@H](O)[C@H]1O`, the Apoptotic cells in test [1] was found to be 9.1%; in test [2], 12.1%; in test [3] it was 12%; in test [4], 12.2%.

For the molecule `Nc1nc(Cl)nc2c1ncn2C1OC(CO)CC1O` (stereo not given), the Apoptotic cells in test [1] was determined as 7.7%; in test [2], 13%; in test [3], 11.4%; in test [4], 10.4%.

As for `OC[C@H]1O[C@@H](n2cnc3c(NC4CCCC4)nc(Cl)nc32)[C@H](O)[C@@H]1O`, the Apoptotic cells in test [1] was determined as 5.4%; in test [2], 10.4%; in test [3], 9.6%; in test [4] it was 11%.

With `Nc1nc(Cl)nc2c1ncn2[C@@H]1O[C@H](CO)[C@@H](O)[C@H]1O`, the Apoptotic cells in test [1] is 8.8%; in test [2], 41.8%; in test [3] it was 82.7%; in test [4], 91.9%.

Regarding `OC[C@H]1O[C@@H](n2cnc3c(NC4CCCC4)cc(Cl)nc32)C[C@@H]1O`, the Apoptotic cells is recorded as 8.6% in test [1], 9.7% in test [2], 12% in test [3] and 13.9% in test [4].

As for `OC[C@H]1O[C@@H](n2cnc3c(NC4CC4)cc(Cl)nc32)C[C@@H]1O`, the Apoptotic cells in test [1] turned out to be 7.3%; in test [2], 10.4%; in test [3] it was 10.8%; in test [4], 11.4%.

As for `OC[C@H]1O[C@@H](n2cnc3c(NC4CCCCCC4)ccnc32)C[C@@H]1O`, the Apoptotic cells in test [1] is reported as 7.7%; in test [2] it was 8.1%; in test [3], 8.9%; in test [4], 9.6%.

Regarding `OC[C@H]1O[C@@H](n2cnc3c(NC4CCCCCC4)cc(Cl)nc32)C[C@@H]1O`, the Apoptotic cells in test [1] is given as 7.4%; in test [2] it was 7.9%; in test [3], 9.6%; in test [4], 10.5%.

For the molecule `OC[C@H]1O[C@@H](n2cnc3c(NC4CCCC4)ccnc32)C[C@@H]1O`, the Apoptotic cells in test [1] stood at 9.8%; in test [2], 9.8%; in test [3] it was 9.5%; in test [4], 9.9%.

Turning to `Nc1nc(Cl)cc2c1ncn2[C@H]1C[C@H](O)[C@@H](CO)O1`, the Apoptotic cells in test [1] is 16.6%; in test [2] it was 20.2%; in test [3] it was 34.5%; in test [4], 59.2%.

`OC[C@H]1O[C@@H](n2cnc3c(NC4CCCC4)nc(Cl)cc32)C[C@@H]1O`: the Apoptotic cells in test [1] is given as 13.1%; in test [2], 13.5%; in test [3], 14.9%; in test [4] it was 15.2%.

Regarding `Nc1cc(Cl)nc2c1ncn2[C@H]1C[C@H](O)[C@@H](CO)O1`, the Apoptotic cells came out at 5% in test [1], 8.7% in test [2], 9.8% in test [3] and 10.6% in test [4].

For the molecule `CNC(=O)C1OC(n2cnc3c(N)nc(Cl)nc32)CC1O` (stereo not given), the Apoptotic cells is reported as 4.5% in test [1], 8.1% in test [2], 10.4% in test [3] and 10.7% in test [4].

In the case of `Nc1nc(Cl)cc2c1ncn2C1O[C@H](CO)[C@@H](O)[C@H]1O` (stereo not given in full), the Apoptotic cells was 9.6% in test [1], 9% in test [2], 9.6% in test [3] and 10.3% in test [4].

As for `Nc1nc(Cl)nc2c1ncn2[C@H]1C[C@H](O)[C@@H](CO)O1` [CLADRIBINE], the Apoptotic cells in test [1] is listed as 91%; in test [2], 91.2%; in test [3], 93.8%; in test [4], 94.7%.
